Results as given in article PMC9814687, “Controlling oncogenic KRAS signaling pathways with a Palladium-responsive peptide” (Communications Chemistry, 2022).

Legend:
HeLa cells = assay: MTT toxicity assay; details: long incubation (24 h), up to 100 µM
Protocol: cells as follows: 100,000 cells per well were seeded in 96 well plates two days before treatment with different
concentrations of the peptides/metal. After 24 h of incubation, HEPES containing 3-(4,5-dimethylthiazol-2-
yl)-2,5-diphenyl tetrazolium bromide (MTT) was added to the cell culture medium to a final concentration of
0.5 mg/ml. Cells were then incubated for 4 h to allow the formation of formazan precipitates by metabolically
active cells. A detergent solution of 10% SDS (sodium dodecyl sulphate) and 0.01 M HCl was then added,
and the plate was incubated overnight at room temperature to allow the solubilization of the precipitates.
The quantity of formazan in each well (directly proportional to the number of viable cells) was measured by
recording changes in absorbance at 570 nm in a microtiter plate reading spectrophotometer (Tecan Infinite
Toxicity assay. HeLa cells were incubated with peptide, metallopeptide and palladium at
different concentrations, for 24 h at 37 °C. Then, the cells were washed two time with PBS before carry ing
out the MTT assay. Data are mean +/- SEM for experimental repeated in two independent times.

[1] = system: phospho-ERK1/2 in serum-starved A549 cells; assay: Inhibition of ERK1/2 phosphorylation (Western blot, densitometry); type: cell-based; details: 4 h, Western blot with pERK antibodies
Protocol: (§1) All steps were performed on a sterile clean bench Telstar AV-100 at rt. Solutions stored in a fridge were warmed beforehand in a water bath (37 °C). Unless otherwise specified, all incubations were performed in DMEM containing 5% of fetal bovine serum (FBS-DMEM). Cell Culture: A549 cell line was cultured in DMEM (Dulbecco´s modified Eagle´s medium), 5 mM glutamine, penicillin (100 units/mL) and streptomycin (100 units/mL), all from Invitrogen. Proliferating cultures were maintained in a 5% CO2 humidified incubator at 37 °C. For all the experiments, cells were seeded in the corresponding well at the indicated concentration 2 days before treatment. A549 cells were seeded on glass-bottom plates 48 h (150.000 cell/ml) before treatment. […] (10 µM) were added. The metallopeptide was made just before the addition to cells by pre-incubating with metal complexes (1:1) in water for 10 min. After 30 min of incubation with cells, these were washed twice with PBS and replaced with fresh FBS-DMEM to observe under the microscope with adequate filters. Digital pictures of the different samples were taken under identical conditions of gain and exposure. A549 cells were seeded on glass-bottom plates (150.000 cell/ml) 48 h before treatment. […] After two washes with PBS, the cells were lysed in Laemmli buffer containing Tris pH 6,8 1 M, Glycerol, SDS, Bromophenol Blue, and β-mercaptoethanol, and heated at 95 °C for 10 min. The samples were separated by SDS-12.5% polyacrylamide gel and transferred to nitrocellulose membrane, to probed by Western blotting. […] The visualization was performed with ChemiDoc MP imaging system by Biorad, and the processing of the images and densitometry quantification was carried out with ImageLab program.

[2] = Circular dichroism (α-helical content); type: physicochemical; details: 10% TFE, 25 °C
Protocol: Circular Dichroism was measured on a Jasco-715 coupled with a thermostat Nestlab RTE-111 using a 2 mm Hellma cuvette at 25 °C and the following settings: Acquisition range, 300-195 nm; band width, 2.0 nm; resolution, 0.2 nm; accumulation, 5 scans; sensitivity, 10 mdeg; response time, 0.25 s; speed, 100 nm/min. The spectra are the average of 5 scans and were processed using the “smooth” macro in the program KaleidaGraph (v 3.5 by Synergy Software).
Circular Dichroism. Circular Dichroism was measured on a Jasco-715 coupled with a thermostat Nestlab RTE-111 using a 2 mm Hellma cuvette at 25 °C and the following settings: Acquisition range, 300 -195 nm; band width, 2.0 nm; resolution, 0.2 nm; accumulation, 5 scans; sensitivity, 10 mdeg; response time, 0.25 s; speed, 100 nm/min. The spectra are the average of 5 scans and were processed using the “smooth” macro in the program KaleidaGraph (v 3.5 by Synergy Software).
Fig S3. Left: CD titration experiment.
5 and 10 equivalents of cis-PdCl2(en). The experiments were carried out in 10 mM phosphate buffer pH 7.5, 100 mM of NaCl and 10% TFE, 25 °C. Mean residue molar ellipticity ([ Θ]MRE) was calculated considering the peptide as an 18-mer.
(1 picture or pasted object on this page, not shown here)

A549 cells = assay: Cell internalization by fluorescence microscopy; type: cell-based; details: for cellular internalization (intracellular TMR fluorescence), in words: A549 cells, 10 µM, 30 min at 37 °C, DMEM with 5% FBS, washed with PBS, fluorescence microscopy
Protocol: as §1
All images were obtained with an Andor Zyla mounted on a Nikon TiE. LED excitation wavelength 550 nm. Filter cube TRITC-B-000 (Semrock): BP 543/22 nm, […] 593/40 nm, and DM 562 nm. Images were further processed with Image J.

| α-helical content ([2]; from CD band at 222 nm, 20 µM peptide + 1 eq. cis-PdCl2(en), 10 mM phosphate pH 7.5, 100 mM NaCl) | mean residue molar ellipticity at 222 nm ([2]; CD, 20 µM peptide, 10 mM phosphate buffer pH 7.5, 100 mM NaCl, calculated for an 18-mer, metallopeptide 30 min after 1 eq. cis-PdCl2(en)) | Molecule | cell viability in MTT assay, in words (HeLa cells) | levels of ERK phosphorylation, in words [1] | cellular internalization (intracellular TMR fluorescence), in words (A549 cells) | cell localization by fluorescence microscopy (A549 cells; cells incubated with the metallopeptide, authors' reply to reviewers) |
| --- | --- | --- | --- | --- | --- | --- |
|  |  | NCCN.[Cl][Pd][Cl] [cis-PdCl2(en), reference compound] | remains high | failed to induce changes |  |  |
| about 22% |  | CC[C@H](C)[C@H](NC(=O)CNC(=O)[C@H](Cc1ccccc1)NC(=O)[C@H](Cc1ccccc1)NC(=O)[C@H](CCCNC(=N)N)NC(=O)[C@H](CCCNC(=N)N)NC(=O)CCCCCNC(=O)c1ccc2c(c1)C(=O)OC21c2ccc(N(C)C)cc2Oc2cc(N(C)C)ccc21)C(=O)N[C@@H](Cc1c[nH]cn1)C(=O)N[C@@H](CC(C)C)C(=O)N[C@H](C(=O)N[C@@H](CC(N)=O)C(=O)N[C@@H](Cc1c[nH]cn1)C(=O)N[C@@H](CC(C)C)C(=O)N[C@@H](CCCCN)C(=O)N[C@H](C(=O)N[C@@H](CCC(=O)O)C(=O)N[C@@H](CCC(=O)O)C(=O)NCC(=O)N[C@@H](CC(N)=O)C(N)=O)[C@@H](C)O)[C@@H](C)O [αH-His2[Pd]] |  | significant decrease | intense intracellular fluorescence signal | endosomal localization |
|  | ≈ −2200 deg cm^2 dmol^−1 | TMR-Ahx-RRFFGIHLTNHLKTEEGN [αH-His2] |  | failed to induce changes | rather poor internalization |  |
